Experiments:
Carbonic anhydrase 9 = Carbonic anhydrase 9 (Homo sapiens, UniProt Q16790)
Description: Inhibition of human transmembrane carbonic anhydrase 9 by stopped-flow CO2 hydration assay

Carbonic anhydrase 12 = Carbonic anhydrase 12 (Homo sapiens, UniProt O43570)
Description: Inhibition of human transmembrane carbonic anhydrase 12 by stopped-flow CO2 hydration assay

Carbonic anhydrase 1 = Carbonic anhydrase 1 (Homo sapiens, UniProt P00915)
Description: Inhibition of human cytosolic carbonic anhydrase 1 by stopped-flow CO2 hydration assay

Carbonic anhydrase 2 = Carbonic anhydrase 2 (Homo sapiens, UniProt P00918)
Description: Inhibition of human cytosolic carbonic anhydrase 2 by stopped-flow CO2 hydration assay

Sequence of Carbonic anhydrase 1 (P00915 whole entry): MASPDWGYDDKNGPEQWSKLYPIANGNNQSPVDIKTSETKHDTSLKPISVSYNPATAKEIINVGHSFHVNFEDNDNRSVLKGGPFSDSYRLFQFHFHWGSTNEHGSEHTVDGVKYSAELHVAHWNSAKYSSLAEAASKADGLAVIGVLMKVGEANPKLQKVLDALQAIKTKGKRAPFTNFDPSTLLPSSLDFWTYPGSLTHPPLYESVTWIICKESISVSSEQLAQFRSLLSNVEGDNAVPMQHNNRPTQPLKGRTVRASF
Sequence of Carbonic anhydrase 12 (O43570 whole entry): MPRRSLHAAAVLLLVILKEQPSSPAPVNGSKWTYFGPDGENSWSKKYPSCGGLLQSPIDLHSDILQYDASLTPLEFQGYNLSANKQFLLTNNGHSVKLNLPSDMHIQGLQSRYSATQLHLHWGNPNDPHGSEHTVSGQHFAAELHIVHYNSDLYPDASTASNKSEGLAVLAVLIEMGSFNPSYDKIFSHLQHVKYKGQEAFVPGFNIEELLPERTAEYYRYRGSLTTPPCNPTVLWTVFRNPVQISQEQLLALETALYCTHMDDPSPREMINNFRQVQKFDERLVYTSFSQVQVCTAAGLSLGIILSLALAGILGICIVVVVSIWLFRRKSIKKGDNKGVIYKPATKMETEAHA

Ki (Carbonic anhydrase 9) [µM] | Ki (Carbonic anhydrase 12) [µM] | Ki (Carbonic anhydrase 1) [µM] | Ki (Carbonic anhydrase 2) [µM] | SMILES
8.84 | – | – | – | NS(=O)(=O)c1ccc(CN2C(=O)c3ccc([N+](=O)[O-])cc3C2=O)cc1
8.65 | – | – | – | NS(=O)(=O)c1ccc(N2C(=O)c3ccc([N+](=O)[O-])cc3C2=O)cc1
0.873 | – | – | – | NS(=O)(=O)c1ccc(CN2C(=O)c3cccc([N+](=O)[O-])c3C2=O)cc1
8.35 | – | – | – | NS(=O)(=O)c1cccc(N2C(=O)c3cccc([N+](=O)[O-])c3C2=O)c1
7.82 | > 10 | > 10 | – | NS(=O)(=O)c1ccccc1N1C(=O)c2cccc([N+](=O)[O-])c2C1=O
> 10 | – | > 10 | > 10 | NS(=O)(=O)c1ccccc1N1C(=O)c2ccc([N+](=O)[O-])cc2C1=O
10 | – | – | – | NS(=O)(=O)c1cccc(N2C(=O)c3ccc([N+](=O)[O-])cc3C2=O)c1
> 10 | – | – | – | NS(=O)(=O)c1ccc(CCN2C(=O)c3ccc([N+](=O)[O-])cc3C2=O)cc1

Reference: ChEMBL document CHEMBL3112541 (Bioorg Med Chem, 2014)
